Source: patent US20080312169A1, “Cosmetic use of D-ribose” (priority 2007, published 2008)

Columns and labels:
[1] = test system: normal human dermal fibroblasts (NHDF); experiment: Oxygen consumption (mitochondrial and cytoplasmic respiration) of NHDF in culture, BD Oxygen Biosensor System; format: cell-based; details: 0.05% D-ribose, two hours of contact, six wells
Experimental: The inventors measured the effect of D-ribose on mitochondrial and cytoplasmic respiration of normal human dermal fibroblasts (NHDF) in culture. The cells were cultivated at 37° C. under an atmosphere of 5% CO2, in a culture solution of DMEM supplemented with 10% bovine fetal serum. […] Thus, D-ribose augments the consumption of oxygen in the cells, and consequently, the metabolism of cutaneous cells and tissues.

[2] = test system: NHDF; experiment: ATP production by NHDF in culture under conditions of hypoxia; format: cell-based, human; details: 0.05% D-ribose, 24 h pretreatment, after six hours of severe hypoxia (oxygen<2%)
Experimental: The inventors have measured the effect of D-ribose on the production of ATP by NHDF in culture, under conditions of hypoxia. The cells used were cultivated in flasks of normal human epidermal cells (NHDF) in a medium of DMEM with 10% fetal bovine serum, incubated at 37° C. in an atmosphere of 5% CO2, and 95% air until 80% confluent. On Day 1, a first measure of the level of ATP was determined on the non-treated, non-stressed NHDF. Two sets of six duplicates were 15 pretreated for 24 hours with 0.05% ribose or not treated as control. At Day 2, before the induction of hypoxia, one set of treated and control cells was harvested to measure the level of ATP. The cells of the second set were suspended, the medium renewed with DMEM with 10% fetal bovine serum with HEPES buffer in order to maintain the pH within physiological conditions during hypoxia and with EDTA in order to prevent the agglutination of the cells. The cells were held in an incubator held at 37° C., in which the atmosphere had been previously replaced by nitrogen. The cells were incubated for six hours in a condition of severe hypoxia (oxygen<2%) in the presence of 0.05% D-ribose versus the non-treated control. Recovery of the cells and measurement of the ATP was followed in the treated and control cells. […]

O=C[C@H](O)[C@H](O)[C@H](O)CO [D-ribose]
augmentation of cytoplasmic respiration over control [1]: 37% | augmentation of mitochondrial respiration over control [1]: 31% | recovery of the ATP levels, of the base levels [2]: about 19%
